From the supplement of paper PMC10307832

Tests used:
Test in all cases: relative viability (nuclei count vs DMSO), 5 days (fraction); higher = more cells survive
[1] = test system: A-427
Summary of the method: (§1)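 Lung cancer cell lines in 1536-well plates were dosed by pin tool the day after seeding, either with one drug alone or with a fixed anchor-drug dose plus five library-drug doses (not always all listed) in √10 steps. After 5 days, cells were fixed and their nuclei stained in one step (final 0.05% Triton X-100, 1% formaldehyde, 1 ug/ml Hoechst), then counted on 4× images. Relative viability is the nuclei count in treated wells divided by that in vehicle wells. Values are medians of duplicate plates.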

[2] = test system: HCC-78
Summary of the method: as §1

[3] = test system: NCI-H460
Summary of the method: as §1

[4] = test system: NCI-H1666
Summary of the method: as §1

[5] = test system: SK-LU-1
Summary of the method: as §1

[6] = test system: LC-2-ad
Summary of the method: as §1

[7] = test system: NCI-H2009
Summary of the method: as §1

[8] = test system: COR-L 105
Summary of the method: as §1

[9] = test system: NCI-H2085
Summary of the method: as §1

[10] = test system: UMC-11
Summary of the method: as §1

[11] = test system: EPLC-272H
Summary of the method: as §1

[12] = test system: LU99A
Summary of the method: as §1

[13] = test system: HCC-366
Summary of the method: as §1

[14] = test system: NCI-H1792
Summary of the method: as §1

[15] = test system: LXF-289
Summary of the method: as §1

[16] = test system: NCI-H1915
Summary of the method: as §1

[17] = test system: HOP-62
Summary of the method: as §1

`COc1nc(C)cnc1NS(=O)(=O)c1cccnc1-c1ccc(-c2nnco2)cc1` [Zibotentan] + CC(C)C[C@H](NC(=O)[C@H](Cc1ccccc1)NC(=O)c1cnccn1)B(O)O [Bortezomib] (partner 0.002 µM) showed a relative viability ([1]; first compound 0.08 µM) of 1.05, a relative viability ([1]; first compound 0.253 µM) of 1.06 and a relative viability ([1]; first compound 0.8 µM) of 1.02. For the same compound, the relative viability ([1]; first compound 2.53 µM) was 1.01, the relative viability ([2]; first compound 0.08 µM) was 0.473 and the relative viability ([2]; first compound 0.253 µM) was 0.443. It also gave a relative viability ([2]; first compound 0.8 µM) of 0.563, a relative viability ([2]; first compound 2.53 µM) of 0.485 and a relative viability ([3]; first compound 0.08 µM) of 1.25. For the same compound, the relative viability ([3]; first compound 0.8 µM) was 1.11, the relative viability ([3]; first compound 2.53 µM) was 1.2 and the relative viability ([4]; first compound 0.08 µM) was 0.76. The relative viability ([4]; first compound 0.253 µM) was 0.599, the relative viability ([4]; first compound 0.8 µM) was 0.8 and the relative viability ([4]; first compound 2.53 µM) was 1. It also gave a relative viability ([5]; first compound 0.08 µM) of 1.17, a relative viability ([5]; first compound 0.253 µM) of 0.988 and a relative viability ([5]; first compound 0.8 µM) of 1.08. The relative viability ([5]; first compound 2.53 µM) was 1.11, the relative viability ([6]; first compound 0.08 µM) was 1.03 and the relative viability ([6]; first compound 0.253 µM) was 0.932. It also gave a relative viability ([6]; first compound 0.8 µM) of 0.921, a relative viability ([6]; first compound 2.53 µM) of 1.07 and a relative viability ([7]; first compound 0.08 µM) of 1.04. For the same compound, the relative viability ([7]; first compound 0.253 µM) was 0.973, the relative viability ([7]; first compound 0.8 µM) was 1.11 and the relative viability ([7]; first compound 2.53 µM) was 1.12. For the same compound, the relative viability ([8]; first compound 0.08 µM) was 0.819, the relative viability ([8]; first compound 0.253 µM) was 0.694 and the relative viability ([8]; first compound 0.8 µM) was 0.859. The relative viability ([8]; first compound 2.53 µM) was 0.994, the relative viability ([9]; first compound 0.08 µM) was 1.06 and the relative viability ([9]; first compound 0.253 µM) was 0.941. The relative viability ([9]; first compound 0.8 µM) was 1.07, the relative viability ([9]; first compound 2.53 µM) was 1.14 and the relative viability ([10]; first compound 0.08 µM) was 0.601. It also gave a relative viability ([10]; first compound 0.253 µM) of 0.623, a relative viability ([10]; first compound 0.8 µM) of 0.668 and a relative viability ([10]; first compound 2.53 µM) of 0.909. For the same compound, the relative viability ([11]; first compound 0.08 µM) was 1.04, the relative viability ([11]; first compound 0.253 µM) was 0.906 and the relative viability ([11]; first compound 0.8 µM) was 0.843. The relative viability ([11]; first compound 2.53 µM) was 0.862, the relative viability ([12]; first compound 0.08 µM) was 1.3 and the relative viability ([12]; first compound 0.253 µM) was 1.13. The relative viability ([12]; first compound 0.8 µM) was 1.23, the relative viability ([12]; first compound 2.53 µM) was 1.17 and the relative viability ([13]; first compound 0.08 µM) was 1.14. The relative viability ([13]; first compound 0.253 µM) was 1.03, the relative viability ([13]; first compound 0.8 µM) was 0.795 and the relative viability ([13]; first compound 2.53 µM) was 1.11. It also gave a relative viability ([14]; first compound 0.08 µM) of 0.912, a relative viability ([14]; first compound 0.253 µM) of 0.833 and a relative viability ([14]; first compound 0.8 µM) of 0.921. It also gave a relative viability ([14]; first compound 2.53 µM) of 0.935, a relative viability ([15]; first compound 0.08 µM) of 1.05 and a relative viability ([15]; first compound 0.253 µM) of 0.993. It also gave a relative viability ([15]; first compound 0.8 µM) of 1.05, a relative viability ([15]; first compound 2.53 µM) of 0.989 and a relative viability ([16]; first compound 0.08 µM) of 1.1. For the same compound, the relative viability ([16]; first compound 0.253 µM) was 0.986, the relative viability ([16]; first compound 0.8 µM) was 1.01 and the relative viability ([16]; first compound 2.53 µM) was 0.965. The relative viability ([17]; first compound 0.08 µM) was 0.732, the relative viability ([17]; first compound 0.253 µM) was 0.625 and the relative viability ([17]; first compound 0.8 µM) was 1.08. It also gave a relative viability ([17]; first compound 2.53 µM) of 0.724.
